“Also recorded” adds a separate entry of the source. Like-named read-outs stand apart in the source and are kept apart here.
Legend:
Type in all cases: cell-based
NF-κB = assay: Screening of oligosaccharides NFK-B inhibiting activity; conditions: screening of (oligo)saccharides, Yes/No
Text: It is hypothesized that the main site of action of the specific nutritional oligosaccharides as mentioned in example 1, is the intestine. […] Screening of oligosaccharides NFK-B inhibiting activity

[1] = test system: TNF-α-mediated NF-κB activation; assay: NF-κB luciferase reporter in HEK293 cells, TNF-α induced (pAOS with NAC or L-cysteine); conditions: pAOS pre-incubated, NAC or L-cysteine added with TNF-α for 2.5 hr
Experimental: FIG. 2. NFkappaB response in HEK293 cells after 22.5 hr. incubation with AOS and NAC (A) or L-cysteine (B) with TNF-α for 2.5 hr. […] TNF-α was added to induce NF-κB activation. citrus pectin oligosaccharide (pAOS) was added 18 h prior to TNF-α addition (t=18 h). As a cystein source, NAC was added at the same time as TNF-α. At t=20.5 the production of luciferase was measured by chemiluminescence.

HEK293 cells = assay: Glutathione in HEK293 cells incubated with pAOS and NAC; conditions: AOS 22.5 hr (18 h in Example 4), NAC 2.5 hr, compared with TNF-α-stimulated cells (control)
Experimental: To determine this, HEK293 cells were incubated with AOS for 22.5 hr. and NAC in combination with TNF-α for 2.5 hr. Obtained GSH levels were corrected for cell numbers and results were compared levels with TNF-α-stimulated cells (control). […] The combination of NAC and AOS enhance GSH production up to 278% compared with control. Data sets were compared with their baseline controls (0 mg/ml AOS in combination with its specific concentration of NAC or L-cysteine) and presented in example 2. High concentrations of AOS and NAC result in a relative stronger increase in GSH levels.
Methods: HEK293 cells were incubated with citrus pectin oligosaccharide (pAOS) for 18 h, then as a cystein source, NAC was added and incubated for 2.5 h. After the incubation period, the cells were centrifugated (2000 rpm for 5 min). Medium was discarded and taken up into ice-cold perchloric acid (0.4 M) and resuspended. Samples were then centrifuged for 10 min. at 13.000 rpm. Supernatant was collected and used for glutathione measurements. Total glutathione measurements were performed in 10 or 20 times diluted samples.

NFκB activation = assay: NFκB luciferase reporter in HEK293 cells with EPA, pAOS and L-cysteine, TNF-α induced; conditions: HEK293-NFκB-Luc cells stimulated with TNFα; for activity at 1000 µM: Homo sapiens, read-out: Inhibition of NFκB activation, average
Experimental: Methods: HEK293 cells were stably transfected with a NFκB luciferase reporter gene construct. One day after cell plating EPA (0, 25 μM) was added at t=0 h. pAOS (0, 1, 2 and 3 g/L) were added at t=96 h and L-cysteine (0, 1 mM) at t=120 h. NFκB activation was induced by 2.5 h incubation with TNF-α. Luciferase activity was subsequently assessed at t=122.5 h. As a control for cell viability cellular ATP levels were determined.

## O.OC[C@H]1O[C@H](OC[C@H]2O[C@H](OC[C@H]3O[C@H](O[C@]4(CO)O[C@H](CO)[C@@H](O)[C@@H]4O)[C@H](O)[C@@H](O)[C@@H]3O)[C@H](O)[C@@H](O)[C@H]2O)[C@H](O)[C@@H](O)[C@H]1O [Stachyose hydrate]
NF-κB
  NFκB inhibition: No

## OC[C@H]1O[C@H](OC[C@H]2OC(O)(CO)[C@@H](O)[C@@H]2O)[C@H](O)[C@@H](O)[C@@H]1O (stereo partly drawn) [Palatinose]
NF-κB
  NFκB inhibition: No

## CC(=O)N[C@@H](CS)C(=O)O [NAC, N-acetyl cysteine]
[1]
  TNF-α-mediated NF-κB activation, result in words: capable of blocking NF-κB activation; also recorded: inhibited TNF-α-mediated NF-κB activation dose dependently
HEK293 cells
  GSH (glutathione) levels, result in words: enhances GSH levels in a concentration of 10 mM

## O=C[C@H](O)[C@@H](O)[C@@H](O)[C@H](O)C(=O)O [Galacturonic acid]
NF-κB
  NFκB inhibition: No

## O=C(O)[C@H]1O[C@H](O[C@@H]2[C@H](O)[C@@H](O)[C@@H](O[C@@H]3[C@H](O)[C@@H](O)C(O)O[C@@H]3C(=O)O)O[C@@H]2C(=O)O)[C@H](O)[C@@H](O)[C@H]1O (stereo partly drawn) [Trigalacturonic acid]
NF-κB
  NFκB inhibition: Yes

## OC[C@H]1O[C@@](CO)(OC[C@@]2(O[C@H]3O[C@H](CO)[C@@H](O)[C@H](O)[C@H]3O)O[C@H](CO)[C@@H](O)[C@@H]2O)[C@@H](O)[C@@H]1O [1-kestose]
NF-κB
  NFκB inhibition: No

## CC/C=C\C/C=C\C/C=C\C/C=C\C/C=C\CCCC(=O)O [EPA, eicosapentaenoic acid]
NFκB activation; AOS 0 mg/ml, EPA 25 uM and/or L-cysteine 1 mM as labelled, control without additions = 100
  Inhibition of NFκB activation, average: 113
NFκB activation; AOS 1 mg/ml, alone or together with the labelled EPA 25 uM and/or L-cysteine 1 mM, control = 100
  Inhibition of NFκB activation, average: 62
NFκB activation; AOS 2 mg/ml, alone or together with the labelled EPA 25 uM and/or L-cysteine 1 mM, control = 100
  Inhibition of NFκB activation, average: 29
NFκB activation; AOS 3 mg/ml, alone or together with the labelled EPA 25 uM and/or L-cysteine 1 mM, control = 100
  Inhibition of NFκB activation, average: 8

## N[C@@H](CS)C(=O)O [L-cysteine]
NFκB activation; HEK293, AOS 0 mg/ml, EPA 25 uM and/or L-cysteine 1 mM as labelled, control without additions = 100
  activity at 1000 µM: 80%
NFκB activation; HEK293, AOS 1 mg/ml, alone or together with the labelled EPA 25 uM and/or L-cysteine 1 mM, control = 100
  activity at 1000 µM: 55%
NFκB activation; HEK293, AOS 2 mg/ml, alone or together with the labelled EPA 25 uM and/or L-cysteine 1 mM, control = 100
  activity at 1000 µM: 32%
NFκB activation; HEK293, AOS 3 mg/ml, alone or together with the labelled EPA 25 uM and/or L-cysteine 1 mM, control = 100
  activity at 1000 µM: 24%

## OC[C@H]1O[C@@](CO)(OC[C@@]2(OC[C@@]3(OC[C@@]4(O[C@H]5O[C@H](CO)[C@@H](O)[C@H](O)[C@H]5O)O[C@H](CO)[C@@H](O)[C@@H]4O)O[C@H](CO)[C@@H](O)[C@@H]3O)O[C@H](CO)[C@@H](O)[C@@H]2O)[C@@H](O)[C@@H]1O [1,1,1-kestopentaose]
NF-κB
  NFκB inhibition: No

## OC[C@H]1O[C@@](CO)(OC[C@@]2(OC[C@@]3(O[C@H]4O[C@H](CO)[C@@H](O)[C@H](O)[C@H]4O)O[C@H](CO)[C@@H](O)[C@@H]3O)O[C@H](CO)[C@@H](O)[C@@H]2O)[C@@H](O)[C@@H]1O [1,1-kestotetraose]
NF-κB
  NFκB inhibition: No

## O=C(O)[C@H]1O[C@H](O[C@@H]2[C@H](O)[C@@H](O)[C@@H](O)O[C@@H]2C(=O)O)[C@H](O)[C@@H](O)[C@H]1O [Digalacturonic acid]
NF-κB
  NFκB inhibition: Yes

Source: patent US20120178671A1, “INHIBITION OF NFK-B MEDIATED VIRUS REPLICATION WITH SPECIFIC OLIGOSACCHARIDES” (N.V. Nutricia, priority 2009, published 2012)
